Experimental data taken from PMC8291497 (ACS Chemical Biology, 2021).
Where a chain is given by its changes, count along the chain named. Where no end group is shown, it is not given here. The star is where a group is joined. Dansyl = CN(C)c1cccc2c(S(=O)(=O)*)cccc12; TAMRA = carboxytetramethylrhodamine

Key:
[1] = biological target: T1, Mint2 PARM 364-570 (Y524W, Y543A) (Homo sapiens, UniProt Q99767, Y524W/Y543A); assay: biochemical
T1 sequence (Q99767 364-570 Y524W/Y543A): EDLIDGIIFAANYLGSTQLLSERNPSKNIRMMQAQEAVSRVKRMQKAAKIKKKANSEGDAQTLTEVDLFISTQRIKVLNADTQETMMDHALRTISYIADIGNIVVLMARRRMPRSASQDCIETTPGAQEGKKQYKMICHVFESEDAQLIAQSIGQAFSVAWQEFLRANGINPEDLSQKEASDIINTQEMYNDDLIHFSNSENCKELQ

[2] = biological target: T2, Mint2 PARM 364-570 (Y524W), pWT PARM (PTB domain and ARM linker) (Homo sapiens, UniProt Q99767, Y524W); assay: Stopped flow binding kinetics, APP peptides to PARM (pseudo-wild type)
T2 construct: made in house; host or cells: Escherichia coli BL21(DE3)pLysS
T2 sequence (Q99767 364-570 Y524W): T1 sequence (Q99767 364-570 Y524W/Y543A) with A180Y
Method: (§1) Kinetic binding rate constants were obtained using an upgraded SX17 stopped flow spectrometer (Applied Photophysics), and all experiments were conducted at 25 °C in 500 mM NaCl and 25 mM HEPES (pH 7.4). The relatively high NaCl concentration was used to improve the solubility of the proteins. The change in tryptophan fluorescence was measured using a band-pass filter (excitation at 280 nm and emission at 330 ± 30 nm) when mixing varying concentrations (2–50 μM) of the dansyl peptides with 1 μM protein or 0.5 μM semisynthetic proteins. […] For PTB variants, we used the kobs value from the fast kinetic phase for the analysis. […] We report the errors in kon and koff from the curve fitting. […] For these koff determinations, we report the standard error of the mean of three replicates. Φ values were defined as ΔΔGTS/ΔΔGeq, where ΔΔGTS = RT ln(kon^WT/kon^mut.) and ΔΔGeq = RT ln(Kd^mut./Keq^WT). Calculated coupling free energies were defined as ΔΔΔGEq = RT ln(Kd^mut.:WTKd^WT:mut./Kd^WT:WTKd^mut.:mut.) or ΔΔΔGTS = RT ln(kon^WT:WTkon^mut.:mut./kon^mut.:WTkon^WT:mut.) as previously described.[27] Propagated errors are reported.

Mint2 PARMWT 364-570 = Mint2 PARMWT 364-570 (Homo sapiens, UniProt Q99767); assay: biochemical
[3] = biological target: T1, Mint2 PARM 364-570 (Y524W, Y543A); assay: Stopped flow binding kinetics, APP peptides to PARM^Y543A; set-up: made in house; host or cells: Escherichia coli BL21(DE3)pLysS
Method: as §1

[4] = biological target: T3, Mint2 PARM 364-570 (Y524W, Y543E) (Homo sapiens, UniProt Q99767, Y524W/Y543E); assay: biochemical
T3 sequence (Q99767 364-570 Y524W/Y543E): T1 sequence (Q99767 364-570 Y524W/Y543A) with A180E

Mint2 PTB 364-538 = Mint2 PTB 364-538 (Homo sapiens, UniProt Q99767, Y524W); assay: biochemical
[5] = biological target: T4, Mint2 PTB 364-538 (without the ARM linker) (Homo sapiens, UniProt Q99767, Y524W); assay: Stopped flow binding kinetics, APP peptides to PTB
T4 construct: made in house; host or cells: Escherichia coli BL21(DE3)pLysS
T4 sequence (Q99767 364-538 Y524W): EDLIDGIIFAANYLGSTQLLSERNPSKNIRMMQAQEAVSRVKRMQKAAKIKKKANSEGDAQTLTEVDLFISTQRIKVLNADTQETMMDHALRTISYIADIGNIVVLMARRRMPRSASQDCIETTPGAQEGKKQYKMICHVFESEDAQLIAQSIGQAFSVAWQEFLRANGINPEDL
Method: as §1

[6] = biological target: T3, Mint2 PARM 364-570 (Y524W, Y543E); assay: Stopped flow binding kinetics, APP peptides to PARM^Y543E; set-up: made in house; host or cells: Escherichia coli BL21(DE3)pLysS
Method: as §1

[7] = biological target: Mint2 PARM 364-570 (Y524W) (Homo sapiens, UniProt Q99767, Y524W); assay: biochemical
Chain of Mint2 PARM 364-570 (Y524W) (Q99767 364-570 Y524W): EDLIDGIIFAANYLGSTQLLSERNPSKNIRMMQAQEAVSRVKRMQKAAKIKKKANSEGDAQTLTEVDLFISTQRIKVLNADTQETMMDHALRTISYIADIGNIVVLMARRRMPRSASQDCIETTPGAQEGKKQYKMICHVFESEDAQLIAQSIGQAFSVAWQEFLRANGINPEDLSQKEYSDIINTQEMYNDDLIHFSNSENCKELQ

[8] = biological target: T5, pseudo-wild type (pWT) PARM domain of Mint2 (residues 364-570, Y524W) (human, UniProt Q99767 364-570, Y524W); assay: fluorescence polarisation; settings: both partners purified
[9] = biological target: T6, PARM^WT (Mint2 residues 364-570) (human, UniProt Q99767 364-570); assay: fluorescence polarisation; settings: both partners purified
[10] = biological target: PTB (human Mint2 PTB domain without the ARM linker, residues 364-538, Y524W) (human, UniProt Q99767 364-538, Y524W); assay: fluorescence polarisation; settings: both partners purified
[11] = biological target: PARM^WT (human Mint2 PTB domain with ARM linker, residues 364-570, no Y524W) (human, UniProt Q99767 364-570); assay: fluorescence polarisation; settings: both partners purified
[12] = biological target: PARM^Y543E (human Mint2 364-570, Y524W, Y543E) (human, UniProt Q99767 364-570, Y524W | Y543E); assay: fluorescence polarisation; settings: both partners purified
Chain of PARM^Y543E (human Mint2 364-570, Y524W, Y543E) (Q99767 364-570 Y524W/Y543E): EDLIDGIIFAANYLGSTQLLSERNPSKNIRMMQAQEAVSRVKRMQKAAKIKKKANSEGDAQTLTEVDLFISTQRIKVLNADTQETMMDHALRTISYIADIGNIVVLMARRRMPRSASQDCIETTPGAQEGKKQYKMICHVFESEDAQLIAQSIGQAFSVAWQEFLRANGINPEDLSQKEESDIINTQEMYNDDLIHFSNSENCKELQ

[13] = biological target: PARM, pseudo-wild type (human Mint2 364-570, Y524W) (human, UniProt Q99767 364-570, Y524W); assay: fluorescence polarisation; settings: both partners purified
[14] = biological target: PARM^Y543A (human Mint2 364-570, Y524W, Y543A) (human, UniProt Q99767 364-570, Y524W | Y543A); assay: fluorescence polarisation; settings: both partners purified
PARM^Y543E = PARM^Y543E (human, UniProt Q99767 364-570, Y524W | Y543E); assay: stopped-flow fluorescence kinetics; settings: both partners purified
[15] = biological target: PTB without the ARM linker (Mint2 residues 364-538) (human, UniProt Q99767 364-538, Y524W); assay: stopped-flow fluorescence kinetics; settings: both partners purified
PARM^Y543A = PARM^Y543A (human, UniProt Q99767 364-570, Y524W | Y543A); assay: stopped-flow fluorescence kinetics; settings: both partners purified
[16] = biological target: T5, pseudo-wild type (pWT) PARM domain of …; assay: stopped-flow fluorescence kinetics; settings: both partners purified
[17] = biological target: T6, PARM^WT (Mint2 residues 364-570); assay: stopped-flow fluorescence kinetics; settings: both partners purified

## C[C@@H](O)[C@H](NC(=O)[C@@H]1CCCN1C(=O)[C@H](CC(N)=O)NC(=O)[C@H](CCC(=O)O)NC(=O)[C@H](Cc1ccc(O)cc1)NC(=O)CNC(=O)[C@H](CC(N)=O)NC(=O)CNC(=O)[C@H](CC(N)=O)NC(=O)[C@H](CC(N)=O)NS(=O)(=O)c1cccc2c(N(C)C)cccc12)C(=O)N[C@@H](Cc1ccc(O)cc1)C(=O)N[C@@H](CCCCN)C(=O)N[C@@H](Cc1ccccc1)C(=O)N[C@@H](Cc1cccc2ccccc12)C(=O)N[C@@H](CCC(=O)O)C(=O)O [Peptide F765Nal1]
[1]
  Ki: 1000 nM
[2]
  Kd: 1500 nM
Mint2 PARMWT 364-570
  Ki: 2600 nM
[3]
  Kd: 500 nM
[4]
  Ki: 1100 nM
Mint2 PTB 364-538
  Ki: 560 nM
[5]
  Kd: 120 nM

## C[C@@H](O)[C@H](NC(=O)[C@@H]1CCCN1C(=O)[C@H](CC(N)=O)NC(=O)[C@H](CCC(=O)O)NC(=O)[C@H](Cc1ccc(O)cc1)NC(=O)CNC(=O)[C@H](CC(N)=O)NC(=O)CNC(=O)[C@H](CC(N)=O)NC(=O)[C@H](CC(N)=O)NS(=O)(=O)c1cccc2c(N(C)C)cccc12)C(=O)N[C@@H](Cc1ccc(O)cc1)C(=O)N[C@@H](CCCCN)C(=O)N[C@@H](Cc1cccc2ccccc12)C(=O)N[C@@H](Cc1ccccc1)C(=O)N[C@@H](CCC(=O)O)C(=O)O [Peptide F764Nal1]
[1]
  Ki: 500 nM
[6]
  Kd: 430 nM
  koff: 1.2 s⁻¹
[6]; pH 7.4
  kon: 2.9e+06 M⁻¹ s⁻¹
[2]
  Kd: 1100 nM
[2]; pH 7.4
  kon: 1.2e+06 M⁻¹ s⁻¹
[2]; stopped flow, same buffer, 25 °C, from fit of kobs vs peptide concentration, or displacement with 50–150 µM APP^WT when not well-defined
  koff: 1.3 s⁻¹
[7]
  Ki: 500 nM
Mint2 PARMWT 364-570
  Ki: 1300 nM
[3]
  Kd: 490 nM
  koff: 1.3 s⁻¹
[3]; pH 7.4
  kon: 2.5e+06 M⁻¹ s⁻¹
[4]
  Ki: 470 ± 30 nM
Mint2 PTB 364-538
  Ki: 290 nM
[5]
  Kd: 70 nM
  koff: 2.3 s⁻¹
[5]; pH 7.4
  kon: 3.1e+07 ± 1e+06 M⁻¹ s⁻¹

## C[C@H](NC(=O)[C@H](CC(N)=O)NC(=O)[C@H](CCC(=O)O)NC(=O)[C@H](Cc1ccc(O)cc1)NC(=O)CNC(=O)[C@H](CC(N)=O)NC(=O)CNC(=O)[C@H](CC(N)=O)NC(=O)[C@H](CC(N)=O)NS(=O)(=O)c1cccc2c(N(C)C)cccc12)C(=O)N[C@H](C(=O)N[C@@H](Cc1ccc(O)cc1)C(=O)N[C@@H](CCCCN)C(=O)N[C@@H](Cc1ccccc1)C(=O)N[C@@H](Cc1ccccc1)C(=O)N[C@@H](CCC(=O)O)C(=O)O)[C@@H](C)O [Peptide P760A]
[7]
  Ki: 40000 ± 800 nM

B1: (TAMRA)-NNG-NGYENPTYKFFE (peptide)
peptide: {TAMRA}-NNGNGYENPTYKFFE
[8]
  binding result: binds
[9]
  binding result: binds

B2: APP^WT 12-mer (NGYENPTYKFFE), unlabelled (peptide)
peptide: NGYENPTYKFFE
[10]
  Ki: 740 nM
[11]
  Ki: 3200 nM
[12]
  Ki: 1100 nM
[13]
  Ki: 3500 nM
[14]
  Ki: 1100 nM

B3: dansyl-APP^WT (peptide)
peptide: Dansyl-NGYENPTYKFFE
PARM^Y543E
  fold increase in kon against PARM: 2.5 fold
  koff: ~2 s⁻¹
[15]
  koff: ~2 s⁻¹
  kon: 1.1e+07 M⁻¹ s⁻¹
  ratio of Kd values for PARM and PTB: 0.057
PARM^Y543A
  fold increase in kon against PARM: 2.5 fold
  koff: ~2 s⁻¹
[16]
  koff: 2.3 ± 0.08 s⁻¹
  kon: 390000 ± 4000 M⁻¹ s⁻¹
[17]
  koff: 1.2 ± 0.05 s⁻¹
  kon: 380000 ± 3000 M⁻¹ s⁻¹
